Measurements published in patent US20170246137A1, “SULFESTROL FOR TREATING CANCER” (CHAMAELEO PHARMA BVBA, priority 2012, published 2017).

Legend:
DU-145 = assay: In vitro direct cytotoxicity, Cell titer Blue viability, 72 hrs; assay type: cell-based
Method: (§1) Cells were harvested, washed, re-suspended into growth medium and counted.
(§2) Stocks of all compounds were then serially diluted. […] Positive control was Taxotere. Taxotere was diluted in 100% DSMO to give a stock concentration of 1 mM. Stock was serially diluted. Final concentrations to which cells were exposed were 1000, 333.3, 111.1, 37.0, 12.3, 4.1, 1.4, 0.5, and 0.2 nM.

LNCaP = assay: as above; assay type: cell-based
Method: as §1, §2

MCF7 = assay: as above; conditions: MCF7
Method: (§3) Cells were maintained in vitro in RPMI 1640 containing 10% (v/v) heat inactivated FBS and 2 mM L-glutamine (growth media) at 37° C. in 5% CO2 and humidified conditions. Cells were harvested, washed, resuspended into growth medium and counted. The cells were re-suspended into assay media (RPMI 1640+1% (v/v) heat inactivated FBS+ and 2 mM L-glutamine) at 0.5-1×10^5 cells/ml (dependent upon cell type) and plated into 96-well assay plates (Corning, black-wall plates) in 50 ul/well aliquots.
(§4) Plates were incubated overnight at 37° C. in 5% humidified CO2 prior to addition of the compounds. […] Stocks of all compounds were then serially diluted. Final concentrations to which cells were exposed were 300, 150, 75, 37.5, 18.75, 9.4, 4.7, 2.3, 1.2, 0.6 μM. Positive control was Cisplatin. Cisplatin was diluted in 1% FBS media to give a stock concentration of 1 mM. Cisplatin stock was then serially diluted. Final concentrations to which cells were exposed were 100, 50, 25, 12.5, 6.3, 3.1, 1.6, 0.8, 0.4, 0.2 μM.
(§5) Plates were incubated for 72 hrs at 37° C. in 5% humidified CO2 after addition of the compounds. Viability of the cells was assessed with the Cell titer Blue™ (Promega) assay. 10 μl of Cell titer Blue™ reagents was added to each test/blank well. Plates were incubated 3 h at 37° C. in 5% humidified CO2 prior to analysis. Fluorescence was measured with a Flex II station plate reader. Excitation wavelength was 570 nm, emission wave length was 600 nm, cut off was 590 nm. Raw data was processed by GraphPad Prism to calculate mean, standard deviation and IC50 values.

MDA-MB-231 = assay: as above; conditions: MDA-MB231
Method: as §3, §4, §5

[1] = tested on: platelet-rich plasma (PRP); assay: Platelet-aggregation-inducing effects in platelet-rich plasma, absorbance 630 nm; assay type: cell-based; conditions: 7 minutes, human PRP
Method: Blood necessary to generate PRP was obtained from 4 healthy human volunteers. 100 ml of fresh venous blood from each donor was isolated directly into tubes containing 1/10th volume of the anti-coagulant Tri-Sodium Citrate (3.2% w/v). The blood and anti-coagulant were immediately mixed and the final concentration of Tri-Sodium Citrate was 0.0106 M.
PRP was prepared by centrifugation of anti-coagulated blood at 180 g for 10 minutes at room temperature. The cloudy yellow supernatant containing the platelets was removed and placed into a clean polypropylene tube. Platelet-poor plasma (PPP) was prepared by centrifuging the remaining sample at 1,200 g for 20 minutes at room temperature. The PRP was adjusted to a suitable platelet count and absorbance at 630 nm by addition of PPP.
All three compounds were dissolved in 100% DMSO to give a stock concentration of 60 mM. […] […] 100 nM gamma thrombin (Cambridge bioscience) was used as control for platelet aggregation. 90 μl aliquots of PRP were added to 96 wells plates. A baseline absorbance reading was taken at 630 nm. 5 μl of the compounds and gamma thrombin control was added to the appropriate PRP.
The plates were incubated at room temperature for 7 minutes on a plate shaker with continuous shaking. A second A630 nm reading was made after the 7 minutes incubation to measure any platelet aggregation induced by the compounds.

[2] = In vitro metabolism in human liver microsomes (STS and CYP); assay type: in vitro ADME; conditions: for Contribution to metabolism / half-life at 5 μM / Half-life: 5 μM; for half-life at 5 μM: human, liver microsomes
Method: In vitro metabolism pathways of DES, Mono-Sulfestrol and Di-Sulfestrol in human liver microsomes were investigated.
Special emphasis was put on desulfatation by steroid sulfatase (STS) and oxidation by cytochrome P (CYP) metabolism. Liver microsomes (Celsis in vitro Technologies) were used at a concentration of 0.5 mg/ml in a volume of 600 μl phosphate buffer pH 7.4. Estrone-3-sulfate was used as positive control.
5 μM of each compound (test and control compound) was added to the liver microsomes and the mixture was incubated at 37° C. for 5, 10, 20, 30, 50, 90 and 120 minutes. After incubation, aliquots of 45 μl were taken which were subsequently quenched with 150 μl ice cold methanol. Aliquots were incubated ≧1 h at −20° C. for protein precipitation. After precipitation, samples were centrifuged and remaining supernatant was used for analysis with LC-MS/MS. Half life of the compounds, speed of metabolism or intrinsic clearance (Clint), and contribution to metabolism of CYP and STS metabolism were calculated based on the data obtained at each time point.

[3] = Estrogenic activity: body weight and plasma cholesterol levels; assay type: in vivo, male Sprague-Dawley rats; conditions: for Mean bodyweight: in g (unit assumed)
Method: Estrogenic activity was determined by measuring body weight and plasma cholesterol levels.
Each animal was dosed three times a day with vehicle or test compound (1st dose 7:30-8:00, 2nd dose 12:30-13:00, 3rd dose 17:00-17:30) for 14 consecutive days.
After 14 days treatment, blood was collected from the animals via cardiac puncture 4 hrs past final dosing to analyze plasma cholesterol levels. The blood was immediately transferred to a tube containing 0.5M EDTA anticoagulant. It was mixed gently and centrifuged at 1000×g at 4° C. for 15 min. Plasma was aspirated from the centrifuged blood samples, quick frozen on dry ice and stored at −80° C. for later use.
Plasma cholesterol levels were determined using a commercial ELISA kit obtained from NovaTeinBio (BG-RAT11262). Standard protocol accompanied by the kit was used without any adjustments.

[4] = patients suffering from prostate cancer, 5 mg p.o. per day; cited from earlier work
[5] = tested on: MCF-7 breast cancer cells; conditions: cited from earlier work
[6] = tested on: DU-145 prostate cancer cells; conditions: cited from earlier work
prostate cancer cells = conditions: cited from earlier work
[7] = + NADPH + 667-Coumate (STS inactive, CYP active)
[8] = nothing added (STS active, CYP inactive)

**Q.** With `CC(=O)O[C@@]12CO[C@@H]1C[C@H](O)[C@@]1(C)C(=O)[C@H](O)C3=C(C)[C@@H](OC(=O)[C@H](O)[C@@H](NC(=O)OC(C)(C)C)c4ccccc4)C[C@@](O)([C@@H](OC(=O)c4ccccc4)[C@H]21)C3(C)C` [Taxotere, reference compound] as the compound, how does the IC50 (DU-145; Homo sapiens, DU-145, hormone-independent prostate cancer cell line, 72 hrs) read?
**A.** 4 nM

**Q.** What about the IC50 (LNCaP; Homo sapiens, hormone-dependent prostate cancer cell line, 72 hrs) of the same compound?
**A.** 2 nM

**Q.** What does the source list for `CC/C(=C(/CC)c1ccc(O)cc1)c1ccc(O)cc1` [DES, diethylstilbestrol, reference compound]?
**A.** cytotoxicity in vitro (in words) (DU-145; DU-145): cytotoxic; cytotoxicity in vitro (in words) (LNCaP): cytotoxic; cytotoxicity in vitro (in words) (MCF7): cytotoxic; cytotoxicity in vitro (in words) (MDA-MB-231): cytotoxic; Absorbance (630 nm) ([1]; 2.3 μM, high absorbance = low aggregation): 0.264 ± 0.030; Absorbance (630 nm) ([1]; 4.7 μM): 0.266 ± 0.031; Absorbance (630 nm) ([1]; 9.4 μM): 0.264 ± 0.030; Absorbance (630 nm) ([1]; 18.75 μM): 0.264 ± 0.030; Absorbance (630 nm) ([1]; 37.5 μM): 0.264 ± 0.030; Absorbance (630 nm) ([1]; 75 μM): 0.268 ± 0.032; Absorbance (630 nm) ([1]; 150 μM): 0.263 ± 0.033; metabolism pathway in human liver microsomes (in words) [2]: only processed by CYP metabolism; Contribution to metabolism [2, 7]: 131%; half-life at 5 μM ([2]; pH 7.4, + NADPH (STS and CYP active)): 18 min; half-life at 5 μM ([2]; pH 7.4, nothing added (STS active, CYP inactive)): 194 min; half-life at 5 μM ([2]; pH 7.4, with 667-Coumate (STS inhibitor; concentration not stated), + NADPH + 667-Coumate (STS inactive, CYP active)): 14 min; Contribution to metabolism [2, 8]: 9%; Mean bodyweight ([3]; Day 0, DES 1.5 mg/kg per day, Di-Sulfestrol 3 mg/kg per day, three doses a day): 382 ± 7.8; Mean bodyweight ([3]; Day 2): 379 ± 9.3; Mean bodyweight ([3]; Day 4): 361 ± 8.6; Mean bodyweight ([3]; Day 6): 350 ± 8.0; Mean bodyweight ([3]; Day 8): 342 ± 8.0; Mean bodyweight ([3]; Day 10): 341 ± 7.8; Mean bodyweight ([3]; Day 12): 337 ± 8.4; Mean bodyweight ([3]; Day 14): 339 ± 9.80; Cholesterol (plasma) ([3]; after 14 days treatment, 4 hrs past final dosing, DES 1.5 mg/kg per day, Di-Sulfestrol 3 mg/kg per day): 14.9 ± 0.724 nmol/L; estrogenic activity in rats (in words) ([3]; lowering body weight and cholesterol levels): show estrogenic activity; increase of non-cancer related deaths, mostly cardiovascular [4]: 36%; effect on cell growth in vitro (in words) [5]: reduced cell growth in vitro; cytotoxic effects (in words) [6]: cytotoxic effects; concentrations that do not influence prostate cancer cell growth (prostate cancer cells): up to 100 ng/ml; minimal concentration to induce cytotoxic effects (prostate cancer cells): 1 µg/mL

**Q.** Which Contribution to metabolism [2, 7] does the source give for `C[C@]12CC[C@@H]3c4ccc(OS(=O)(=O)O)cc4CC[C@H]3[C@@H]1CCC2=O` [E-3-S, Estrone-3-sulfate] here?
**A.** 19%

**Q.** And the Half-life [2, 7]?
**A.** 62 min

**Q.** What about the Contribution to metabolism [2, 8] of the same compound?
**A.** 44%

**Q.** And the Half-life [2, 8]?
**A.** 27 min
